Like-named read-outs stand apart in the source and are kept apart here.
Experiments:
SARS-CoV-2 nsp3-mac1 [1] = target: T1, SARS-CoV-2 nsp3-mac1 (Severe acute respiratory syndrome coronavirus 2, UniProt P0DTD1); experiment: biochemical; assay type: biochemical; conditions: SARS-CoV-2 nsp3 macrodomain TR-FRET single point
SARS-CoV-2 nsp3-mac1 [2] = target: T1, SARS-CoV-2 nsp3-mac1; experiment: biochemical; parameters: SARS-CoV-2 nsp3 macrodomain TR-FRET single point, per cent inhibition, n=2
[3] = read-out: perc_inhibition_mean, batch_name=ASAP-0000389-001
[4] = read-out: perc_inhibition_mean, batch_name=ASAP-0000247-001
[5] = read-out: perc_inhibition_mean, batch_name=ASAP-0000325-001
[6] = read-out: perc_inhibition_mean, batch_name=ASAP-0000420-001
[7] = read-out: perc_inhibition_mean, batch_name=ASAP-0000248-001
[8] = read-out: perc_inhibition_mean, batch_name=ASAP-0000366-001
[9] = read-out: perc_inhibition_mean, batch_name=ASAP-0000462-001
[10] = read-out: perc_inhibition_mean, batch_name=ASAP-0000299-001
[11] = read-out: perc_inhibition_mean, batch_name=ASAP-0000327-001
[12] = read-out: perc_inhibition_mean, batch_name=ASAP-0000316-001
[13] = read-out: perc_inhibition_mean, batch_name=ASAP-0000480-001
[14] = read-out: perc_inhibition_mean, batch_name=ASAP-0000278-001

`c1ccc(-c2nc(CNc3cccnc3)cs2)nc1` [ASAP-0000123] gave a perc_inhibition_mean (SARS-CoV-2 nsp3-mac1 [1]; concentration 50.0 uM) of -9.865% and an inhibition at 50 µM (SARS-CoV-2 nsp3-mac1 [2]; read-out: perc_inhibition_mean, batch_name=ASAP-0000123-001) of -9.87%.
Molecule `O=C(c1cccnc1S)N1CCC(c2ccn3ncc(C(=O)N4CCCCC4)c3c2)CC1` [ASAP-0000389] has a perc_inhibition_mean (SARS-CoV-2 nsp3-mac1 [1]; concentration 49.75 uM) of 32.298%, a perc_inhibition_mean (SARS-CoV-2 nsp3-mac1 [1]; concentration 99.5 uM) of 52.653% and an inhibition at 49.75 µM (SARS-CoV-2 nsp3-mac1 [2]; [3]) of 32.3%. It also gave an inhibition at 99.5 µM (SARS-CoV-2 nsp3-mac1 [2]; [3]) of 52.7%.
`CO[C@@H](CNc1ncnc2[nH]ccc12)c1cccc(Cl)c1` [ASAP-0000247] showed a perc_inhibition_mean (SARS-CoV-2 nsp3-mac1 [1]; concentration 50.0 uM) of 4.096%, a perc_inhibition_mean (SARS-CoV-2 nsp3-mac1 [1]; concentration 100.0 uM) of 14.175% and an inhibition at 50 µM (SARS-CoV-2 nsp3-mac1 [2]; [4]) of 4.1%. The inhibition at 100 µM (SARS-CoV-2 nsp3-mac1 [2]; [4]) was 14.2%.
With `COc1cc(CNc2cnc3[nH]ncc3c2)ccc1Cl` [ASAP-0000029] the perc_inhibition_mean (SARS-CoV-2 nsp3-mac1 [1]; concentration 50.0 uM) was -2.794% and the inhibition at 50 µM (SARS-CoV-2 nsp3-mac1 [2]; read-out: perc_inhibition_mean, batch_name=ASAP-0000029-001) was -2.79%.
In the case of `N[C@@H]1CCC[C@@H](C(=O)N(CCC(=O)N2CCNCC2)Cc2cccc(Cl)c2)C1` [ASAP-0000325], the perc_inhibition_mean (SARS-CoV-2 nsp3-mac1 [1]; concentration 49.75 uM, n=2) is reported as -0.755%, the perc_inhibition_mean (SARS-CoV-2 nsp3-mac1 [1]; concentration 99.5 uM, n=2) is reported as -1.468% and the inhibition at 49.75 µM (SARS-CoV-2 nsp3-mac1 [2]; [5]) is reported as -0.755%. For the same molecule, the inhibition at 99.5 µM (SARS-CoV-2 nsp3-mac1 [2]; [5]) was -1.47%.
For `Cc1noc(CCCNC(=O)c2ncnc3[nH]ccc23)n1` [ASAP-0000116], the perc_inhibition_mean (SARS-CoV-2 nsp3-mac1 [1]; concentration 50.0 uM) was -5.133% and the inhibition at 50 µM (SARS-CoV-2 nsp3-mac1 [2]; read-out: perc_inhibition_mean, batch_name=ASAP-0000116-001) was -5.13%.
For `O=C(c1cc(O)ncn1)N1CCC(c2ccn3ncc(C(=O)N4CCCCC4)c3c2)CC1` [ASAP-0000420], the perc_inhibition_mean (SARS-CoV-2 nsp3-mac1 [1]; concentration 49.75 uM) was 19.125%, the perc_inhibition_mean (SARS-CoV-2 nsp3-mac1 [1]; concentration 99.5 uM) was 30.869% and the inhibition at 49.75 µM (SARS-CoV-2 nsp3-mac1 [2]; [6]) was 19.1%. The inhibition at 99.5 µM (SARS-CoV-2 nsp3-mac1 [2]; [6]) was 30.9%.
For `COc1cccc2cc(CNc3cnc4[nH]ncc4c3)oc12` [ASAP-0000028], the perc_inhibition_mean (SARS-CoV-2 nsp3-mac1 [1]; concentration 50.0 uM) was -4.293% and the inhibition at 50 µM (SARS-CoV-2 nsp3-mac1 [2]; read-out: perc_inhibition_mean, batch_name=ASAP-0000028-001) was -4.29%.
Molecule `O=C(NCc1ccc(Cl)cn1)c1ncnc2[nH]ccc12` [ASAP-0000248] has a perc_inhibition_mean (SARS-CoV-2 nsp3-mac1 [1]; concentration 50.0 uM) of -4.958%, a perc_inhibition_mean (SARS-CoV-2 nsp3-mac1 [1]; concentration 100.0 uM) of -2.568% and an inhibition at 50 µM (SARS-CoV-2 nsp3-mac1 [2]; [7]) of -4.96%. The inhibition at 100 µM (SARS-CoV-2 nsp3-mac1 [2]; [7]) was -2.57%.
Molecule `COc1cc(CC(=O)Nc2cc3c(=O)nc[nH]c3cn2)on1` [ASAP-0000366] has a perc_inhibition_mean (SARS-CoV-2 nsp3-mac1 [1]; concentration 49.75 uM) of -4.691%, a perc_inhibition_mean (SARS-CoV-2 nsp3-mac1 [1]; concentration 99.5 uM) of -3.481% and an inhibition at 49.75 µM (SARS-CoV-2 nsp3-mac1 [2]; [8]) of -4.69%. For the same molecule, the inhibition at 99.5 µM (SARS-CoV-2 nsp3-mac1 [2]; [8]) was -3.48%.
Work on `CC(C)[C@@H](Nc1ncnc2[nH]ccc12)C(N)=O` [ASAP-0000462] yielded a perc_inhibition_mean (SARS-CoV-2 nsp3-mac1 [1]; concentration 49.75 uM) of 64.403%, a perc_inhibition_mean (SARS-CoV-2 nsp3-mac1 [1]; concentration 99.5 uM) of 77.698% and an inhibition at 49.75 µM (SARS-CoV-2 nsp3-mac1 [2]; [9]) of 64.4%. The inhibition at 99.5 µM (SARS-CoV-2 nsp3-mac1 [2]; [9]) was 77.7%.
`c1ccc(OC[C@@H]2CCCN2c2ncnc3[nH]ccc23)cc1` [ASAP-0000009] showed a perc_inhibition_mean (SARS-CoV-2 nsp3-mac1 [1]; concentration 50.0 uM) of -0.466% and an inhibition at 50 µM (SARS-CoV-2 nsp3-mac1 [2]; read-out: perc_inhibition_mean, batch_name=ASAP-0000009-001) of -0.466%.
Work on `O[C@@]1(C(F)(F)F)CCCN(c2ncnc3n[nH]cc23)CC1` [ASAP-0000057] yielded a perc_inhibition_mean (SARS-CoV-2 nsp3-mac1 [1]; concentration 50.0 uM) of -4.139% and an inhibition at 50 µM (SARS-CoV-2 nsp3-mac1 [2]; read-out: perc_inhibition_mean, batch_name=ASAP-0000057-001) of -4.14%.
`CCN(Cc1cccnc1)C(=O)c1ccc(NC(=O)Nc2ccccc2)cc1` [ASAP-0000299] was tested, and the perc_inhibition_mean (SARS-CoV-2 nsp3-mac1 [1]; concentration 49.75 uM, n=2) was 3.632%, the perc_inhibition_mean (SARS-CoV-2 nsp3-mac1 [1]; concentration 99.5 uM, n=2) was -7.091% and the inhibition at 49.75 µM (SARS-CoV-2 nsp3-mac1 [2]; [10]) was 3.63%. The inhibition at 99.5 µM (SARS-CoV-2 nsp3-mac1 [2]; [10]) was -7.09%.
`Cc1nccc(C(=O)N2CCC(c3ccn4ncc(C(=O)N5CCCCC5)c4c3)CC2)n1` [ASAP-0000327] showed a perc_inhibition_mean (SARS-CoV-2 nsp3-mac1 [1]; concentration 49.75 uM, n=2) of 16.537%, a perc_inhibition_mean (SARS-CoV-2 nsp3-mac1 [1]; concentration 99.5 uM, n=2) of 27.369% and an inhibition at 49.75 µM (SARS-CoV-2 nsp3-mac1 [2]; [11]) of 16.5%. It also gave an inhibition at 99.5 µM (SARS-CoV-2 nsp3-mac1 [2]; [11]) of 27.4%.
`CCc1n[nH]c(NC(=O)c2ccc(NC(=O)Nc3ccccc3)cc2)c1Br` [ASAP-0000316] gave a perc_inhibition_mean (SARS-CoV-2 nsp3-mac1 [1]; concentration 49.75 uM, n=2) of -5.574%, a perc_inhibition_mean (SARS-CoV-2 nsp3-mac1 [1]; concentration 99.5 uM, n=2) of 0.467% and an inhibition at 49.75 µM (SARS-CoV-2 nsp3-mac1 [2]; [12]) of -5.57%. For the same molecule, the inhibition at 99.5 µM (SARS-CoV-2 nsp3-mac1 [2]; [12]) was 0.467%.
`CC(C)[C@@H](CO)[C@@H](Nc1ncnc2[nH]ccc12)C(C)C` [ASAP-0000480] showed a perc_inhibition_mean (SARS-CoV-2 nsp3-mac1 [1]; concentration 49.75 uM) of 6.651%, a perc_inhibition_mean (SARS-CoV-2 nsp3-mac1 [1]; concentration 99.5 uM) of 13.057% and an inhibition at 49.75 µM (SARS-CoV-2 nsp3-mac1 [2]; [13]) of 6.65%. For the same molecule, the inhibition at 99.5 µM (SARS-CoV-2 nsp3-mac1 [2]; [13]) was 13.1%.
`Cc1cccc(Cl)c1S(=O)(=O)Nc1cnc2[nH]ncc2c1` [ASAP-0000140] was tested, and the perc_inhibition_mean (SARS-CoV-2 nsp3-mac1 [1]; concentration 50.0 uM) was -0.254% and the inhibition at 50 µM (SARS-CoV-2 nsp3-mac1 [2]; read-out: perc_inhibition_mean, batch_name=ASAP-0000140-001) was -0.254%.
Work on `Cc1ncc(NCc2csc(-c3ccccn3)n2)cn1` [ASAP-0000278] yielded a perc_inhibition_mean (SARS-CoV-2 nsp3-mac1 [1]; concentration 49.75 uM, n=2) of -5.23%, a perc_inhibition_mean (SARS-CoV-2 nsp3-mac1 [1]; concentration 99.5 uM, n=2) of -4.487% and an inhibition at 49.75 µM (SARS-CoV-2 nsp3-mac1 [2]; [14]) of -5.23%. For the same molecule, the inhibition at 99.5 µM (SARS-CoV-2 nsp3-mac1 [2]; [14]) was -4.49%.
